Assay results as given in patent US20050191344A1, “Liposome composition for delivery of therapeutic agents” (priority 2004, published 2005).

Key:
[1] = Zeta potential of liposomes as a function of pH; assay type: physicochemical; details: FIG. 2
From the text: As discussed in Example 5, zeta potential measurements were obtained for the liposomes containing DSPEI and for the liposomes containing HDSG. […] This is likely indicative of a higher pKa and greater charge at physiological pH. […] The greater neutrality of DSPEI-containing liposomes is important for minimization of non-specific interactions with plasma proteins and cells under in vivo conditions and thus prolonged circulation in the blood, which is necessary for systemic drug and gene delivery, as well as delivery of gene modulators, to diseased tissues.
With continuing reference to FIG. 2, zeta potential measurements were also determined for liposomes prepared using dimethyldioctadecylammonium bromide (DDAB) (diamonds). […] Therefore DDAB-containing liposomes retain their cationic charge at physiological pH and are more likely to participate in non-specific interactions with plasma proteins under in vivo conditions. DDAB-containing liposomes are consequently cleared rapidly from circulation and are less suitable for drug or gene delivery to diseased tissues.
Zeta potential was measured using a ZETASIZER 2000 from Malver Instruments, Inc. (Southborough Mass.). […]

[2] = reported values; cited from earlier work

pKa relative to the other lipids, inferred from zeta potential versus pH slope [1] | Structure (SMILES) | pKa [2]
higher than for either HDSG or DSPEI | CCCCCCCCCCCCCCCCCC[N+](C)(C)CCCCCCCCCCCCCCCCCC.[Br-] [DDAB, dimethyldioctadecylammonium bromide, reference compound] | 
lower pKa than HDSG | CCCCCCCCCCCCCCCCCC(=O)OCC(COP(=O)(O)OCCNCc1c[nH]cn1)OC(=O)CCCCCCCCCCCCCCCCC (stereo not shown) [DSPEI, distearoylphosphatidylethanolamine imidazole] | 
 | NCCc1c[nH]cn1 [histamine] | 6
 | c1c[nH]cn1 [imidazole] | about 6.0
